Test results as given in PMC6017286, “VSP-17, a New PPARγ Agonist, Suppresses the Metastasis of Triple-Negative Breast Cancer via Upregulating the Expression of E-Cadherin” (Molecules : A Journal of Synthetic Chemistry and Natural …, 2018).

Target: T1, PPARγ (Homo sapiens, UniProt P37231)
T1 construct: gene PPARG; GST-fused human PPARγ-LBD
T1 sequence (P37231 231-505 limits assumed): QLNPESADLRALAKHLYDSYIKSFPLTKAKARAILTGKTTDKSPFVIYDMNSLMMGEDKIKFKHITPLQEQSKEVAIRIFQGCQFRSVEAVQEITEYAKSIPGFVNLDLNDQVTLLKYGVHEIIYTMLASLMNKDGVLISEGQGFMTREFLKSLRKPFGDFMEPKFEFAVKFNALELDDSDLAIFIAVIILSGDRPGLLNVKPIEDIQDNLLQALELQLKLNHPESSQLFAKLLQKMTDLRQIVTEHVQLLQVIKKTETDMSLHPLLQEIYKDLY
Experiment: LanthaScreen TR-FRET competitive binding assay (displacement of fluorescent PPAR ligand)

Ki: 270 nM
Compound: O=C(NCc1ccncc1)c1ccc2c(ccn2Cc2ccc(C(F)(F)F)cc2)c1 [VSP-17]
